# Read-outs that look alike come from different tables or passages of the source.
# Tests used:
# CLK2 = biological target: T1, CLK2 (Homo sapiens, UniProt P49760); experiment: CLK2 kinase activity assay (Z-lyte, Ser/Thr 6 peptide); format: biochemical; details: recombinant CLK2 kinase, ATP 60 μM; read-out: EC50
# T1 construct: purchased Thermo Fisher (Life Technologies), Z'-LYTE Kinase Assay Kits
# Description: All reactions were performed in duplicate.
# BT-549 = experiment: CellTiter-Glo Viability Assay, breast cancer; format: cell-based; details: Homo sapiens, 96 h; BT-549, breast cancer, four days; read-out: EC50
# CAMA1 = experiment: CellTiter-Glo Viability Assay, breast cancer; format: cell-based; details: Homo sapiens, CAMA-1, 96 h; CAMA1, breast cancer, four days; read-out: EC50
# DU4475 = experiment: CellTiter-Glo Viability Assay, breast cancer; format: cell-based; details: Homo sapiens, DU-4475, 96 h; DU4475, breast cancer, four days; read-out: EC50
# HCC1599 = experiment: CellTiter-Glo Viability Assay, breast cancer; format: cell-based; details: Homo sapiens, 96 h; HCC1599, breast cancer, four days; read-out: EC50
# MCF7 = experiment: CellTiter-Glo Viability Assay, breast cancer; format: cell-based; details: Homo sapiens, 96 h; MCF7, breast cancer, four days; read-out: EC50
# MDA-MB-231-Luc = experiment: CellTiter-Glo Viability Assay, breast cancer; format: cell-based; details: Homo sapiens, 96 h; MDA-MB-231-Luc, breast cancer, four days; read-out: EC50
# T47D = experiment: CellTiter-Glo Viability Assay, breast cancer; format: cell-based; details: Homo sapiens, 96 h, breast cancer, four days, read-out: EC50
# ZR-75-1 = experiment: CellTiter-Glo Viability Assay, breast cancer; format: cell-based; details: Homo sapiens, 96 h; ZR-75-1, breast cancer, four days; read-out: EC50
# all 50 cell lines = experiment: CellTiter-Glo Viability Assay, average across all cell lines; format: cell-based; details: Homo sapiens; across all 50 cell lines; read-out: average EC50 for inhibition of cancer cell proliferation
# Summary of the method: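 Human cancer cell lines from breast, colorectal, haematopoietic/lymphoid, liver, lung, ovarian, pancreatic and prostate tumours were seeded at 300-3,000 cells/well and exposed to compound in duplicate for four days at 37° C, 5% CO2. Viable cells were measured by ATP luminescence; EC50 values came from dose-response curves.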
# [1] = test system: colorectal cancer (6 cell lines); experiment: CellTiter-Glo Viability Assay, colorectal cancer; format: cell-based; details: Homo sapiens, inhibition of cancer cell proliferation
# [2] = test system: haematopoietic & lymphoid tumors (13 cell lines); experiment: CellTiter-Glo Viability Assay, haematopoietic & lymphoid tumors; format: cell-based; details: Homo sapiens, inhibition of cancer cell proliferation
# [3] = test system: liver cancer (3 cell lines); experiment: CellTiter-Glo Viability Assay, liver cancer; format: cell-based; details: Homo sapiens, inhibition of cancer cell proliferation
# [4] = test system: lung cancer (4 cell lines); experiment: CellTiter-Glo Viability Assay, lung cancer; format: cell-based; details: Homo sapiens, inhibition of cancer cell proliferation
# [5] = test system: ovarian cancer (4 cell lines); experiment: CellTiter-Glo Viability Assay, ovarian cancer; format: cell-based; details: Homo sapiens, inhibition of cancer cell proliferation
# [6] = test system: pancreatic cancer (8 cell lines); experiment: CellTiter-Glo Viability Assay, pancreatic cancer; format: cell-based; details: Homo sapiens, inhibition of cancer cell proliferation
# [7] = test system: prostate cancer (5 cell lines); experiment: CellTiter-Glo Viability Assay, prostate cancer; format: cell-based; details: Homo sapiens
# [8] = HCT-116, HCT116 cell line, read-out: Colorectal cancer, EC50 (μM) HCT116
# [9] = HT-29, HT29 cell line, read-out: Colorectal cancer, EC50 (μM) HT29
# [10] = SW-620, SW620 cell line, read-out: Colorectal cancer, EC50 (μM) SW620
# [11] = DLD-1 cell line, read-out: Colorectal cancer, EC50 (μM) DLD-1
# [12] = SW48 cell line, read-out: Colorectal cancer, EC50 (μM) SW48
# [13] = SW480 cell line, read-out: Colorectal cancer, EC50 (μM) SW480
# [14] = DND41, DND-41 cell line, read-out: Haematopoietic & Lymphoid tumors, EC50 (μM) DND-41
# [15] = MV4-11, MV-4-11 cell line, read-out: Haematopoietic & Lymphoid tumors, EC50 (μM) MV-4-11
# [16] = Rec1, REC-1 cell line, read-out: Haematopoietic & Lymphoid tumors, EC50 (μM) REC-1
# [17] = SU-DHL-4, SUDHL4 cell line, read-out: Haematopoietic & Lymphoid tumors, EC50 (μM) SUDHL4
# [18] = HL-60 cell line, read-out: Haematopoietic & Lymphoid tumors, EC50 (μM) HL-60
# [19] = JM1 cell line, read-out: Haematopoietic & Lymphoid tumors, EC50 (μM) JM1
# [20] = JURKAT, Clone E6-1 cell line, read-out: Haematopoietic & Lymphoid tumors, EC50 (μM) JURKAT, Clone E6-1
# [21] = JeKo-1 cell line, read-out: Haematopoietic & Lymphoid tumors, EC50 (μM) JeKo-1
# [22] = KASUMI-1 cell line, read-out: Haematopoietic & Lymphoid tumors, EC50 (μM) KASUMI-1
# [23] = Loucy cell line, read-out: Haematopoietic & Lymphoid tumors, EC50 (μM) Loucy
# [24] = MOLT-4 cell line, read-out: Haematopoietic & Lymphoid tumors, EC50 (μM) MOLT-4
# [25] = TF-1 cell line, read-out: Haematopoietic & Lymphoid tumors, EC50 (μM) TF-1
# [26] = TOLEDO cell line, read-out: Haematopoietic & Lymphoid tumors, EC50 (μM) TOLEDO
# [27] = SNU-398, SNU398 cell line, read-out: Liver cancer, EC50 SNU398
# [28] = HEPG2 cell line, read-out: Liver cancer, EC50 HEPG2
# [29] = PLC/PRF/5 cell line, read-out: Liver cancer, EC50 PLC/PRF/5
# [30] = A-427, A427 cell line, read-out: Lung cancer, EC50 (μM) A427
# [31] = HCC78, HCC-78 cell line, read-out: Lung cancer, EC50 (μM) HCC-78
# [32] = NCI-H460 cell line, read-out: Lung cancer, EC50 (μM) NCI-H460
# [33] = NCI-H522 cell line, read-out: Lung cancer, EC50 (μM) NCI-H522
# [34] = PA-1, PA1 cell line, read-out: Ovarian cancer, EC50 (μM) PA1
# [35] = TOV112D, TOV-112D cell line, read-out: Ovarian cancer, EC50 (μM) TOV-112D
# [36] = OV-90 cell line, read-out: Ovarian cancer, EC50 (μM) OV-90
# [37] = OVCAR-3 cell line, read-out: Ovarian cancer, EC50 (μM) OVCAR-3
# [38] = DU-145, read-out: Prostate cancer EC50 Du-145
# [39] = PC-3, PC3 cell line, inhibition of cancer cell proliferation, read-out: Prostate cancer EC50 PC3
# [40] = 22Rv1 cell line, inhibition of cancer cell proliferation, read-out: Prostate cancer EC50 22Rv1
# [41] = LNCap clone FGC cell line, inhibition of cancer cell proliferation, read-out: Prostate cancer EC50 LNCap clone FGC
# [42] = VCaP (Sigma) cell line, inhibition of cancer cell proliferation, read-out: Prostate cancer EC50 VCaP (Sigma)
# T1 sequence (P49760 whole entry): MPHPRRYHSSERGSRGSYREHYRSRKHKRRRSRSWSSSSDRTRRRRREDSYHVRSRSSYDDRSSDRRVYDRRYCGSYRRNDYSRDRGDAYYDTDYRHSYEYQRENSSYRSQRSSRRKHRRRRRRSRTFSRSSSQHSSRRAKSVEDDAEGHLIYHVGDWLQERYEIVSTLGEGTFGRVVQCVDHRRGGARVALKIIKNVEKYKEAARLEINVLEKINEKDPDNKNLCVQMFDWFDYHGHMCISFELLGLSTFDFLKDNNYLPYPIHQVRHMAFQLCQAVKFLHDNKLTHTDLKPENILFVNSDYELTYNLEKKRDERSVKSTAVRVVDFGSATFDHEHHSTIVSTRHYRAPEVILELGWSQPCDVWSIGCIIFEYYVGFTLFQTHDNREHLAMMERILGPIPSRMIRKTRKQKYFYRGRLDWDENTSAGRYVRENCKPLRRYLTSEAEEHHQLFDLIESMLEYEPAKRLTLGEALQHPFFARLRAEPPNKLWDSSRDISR
compound,measurement,setting,value
CN1CCCn2cc(nn2)-c2nccc3[nH]c(nc23)-c2n[nH]c3ccc(cc23)-c2cncc(c2)C1 [Compound 57],EC50,CLK2,2.8 nM
same,EC50,BT-549,5810 nM
same,EC50,CAMA1,> 10000 nM
same,EC50,DU4475,1660 nM
same,EC50,HCC1599,2200 nM
same,EC50,MCF7,> 10000 nM
same,EC50,MDA-MB-231-Luc,> 10000 nM
same,EC50,T47D,> 10000 nM
same,EC50,ZR-75-1,> 10000 nM
same,EC50,all 50 cell lines,7300 nM
same,EC50,[1]; [8],> 10 µM
same,EC50,[1]; [9],> 10 µM
same,EC50,[1]; [10],7.7 µM
same,EC50,[1]; [11],> 10 µM
same,EC50,[1]; [12],2.03 µM
same,EC50,[1]; [13],> 10 µM
same,EC50,[2]; [14],2.38 µM
same,EC50,[2]; [15],0.188 µM
same,EC50,[2]; [16],6.85 µM
same,EC50,[2]; [17],0.953 µM
same,EC50,[2]; [18],3.13 µM
same,EC50,[2]; [19],1.68 µM
same,EC50,[2]; [20],> 10 µM
same,EC50,[2]; [21],0.917 µM
same,EC50,[2]; [22],9.46 µM
same,EC50,[2]; [23],1.71 µM
same,EC50,[2]; [24],> 10 µM
same,EC50,[2]; [25],4.32 µM
same,EC50,[2]; [26],1.85 µM
same,EC50,[3]; [27],3380 nM
same,EC50,[3]; [28],> 10000 nM
same,EC50,[3]; [29],> 10000 nM
same,EC50,[4]; [30],7.79 µM
same,EC50,[4]; [31],> 10 µM
same,EC50,[4]; [32],> 10 µM
same,EC50,[4]; [33],7.58 µM
same,EC50,[5]; [34],> 10 µM
same,EC50,[5]; [35],> 10 µM
same,EC50,[5]; [36],> 10 µM
same,EC50,[5]; [37],3.89 µM
same,EC50,"[6]; BXPC-3, BxPC3 cell line, read-out: Pancreatic cancer, EC50 BxPC3",7240 nM
same,EC50,"[6]; CAPAN-1, Capan1 cell line, read-out: Pancreatic cancer, EC50 Capan1",> 10000 nM
same,EC50,"[6]; Capan-2, Capan2 cell line, read-out: Pancreatic cancer, EC50 Capan2",> 10000 nM
same,EC50,"[6]; MIA PaCa-2 cell line, read-out: Pancreatic cancer, EC50 MIA PaCa-2",6720 nM
same,EC50,"[6]; PANC 05.04 cell line, read-out: Pancreatic cancer, EC50 PANC 05.04",> 10000 nM
same,EC50,"[6]; PANC-1 cell line, read-out: Pancreatic cancer, EC50 PANC-1",> 10000 nM
same,EC50,"[6]; UPAFII cell line, read-out: Pancreatic cancer, EC50 UPAFII",> 10000 nM
same,EC50,[7]; [38],> 10000 nM
same,EC50,[7]; [39],8340 nM
same,EC50,[7]; [40],6980 nM
same,EC50,[7]; [41],> 10000 nM
same,EC50,[7]; [42],> 10000 nM
Cn1cc(-c2ccc3cnc(NC(=O)c4ccc5c(c4)CNCC5)cc3c2)cn1 [Compound 74],EC50,CLK2,1.9 nM
same,EC50,BT-549,346 nM
same,EC50,CAMA1,694 nM
same,EC50,DU4475,302 nM
same,EC50,HCC1599,168 nM
same,EC50,MCF7,1900 nM
same,EC50,MDA-MB-231-Luc,750 nM
same,EC50,T47D,997 nM
same,EC50,ZR-75-1,971 nM
same,EC50,all 50 cell lines,504 nM
same,EC50,[1]; [8],0.239 µM
same,EC50,[1]; [9],0.52 µM
same,EC50,[1]; [10],0.163 µM
same,EC50,[1]; [11],0.215 µM
same,EC50,[1]; [12],0.151 µM
same,EC50,[1]; [13],0.313 µM
same,EC50,[2]; [14],0.491 µM
same,EC50,[2]; [15],0.076 µM
same,EC50,[2]; [16],0.134 µM
same,EC50,[2]; [17],0.376 µM
same,EC50,[2]; [18],0.76 µM
same,EC50,[2]; [19],0.135 µM
same,EC50,[2]; [20],0.464 µM
same,EC50,[2]; [21],0.157 µM
same,EC50,[2]; [22],0.203 µM
same,EC50,[2]; [23],0.241 µM
same,EC50,[2]; [24],0.465 µM
same,EC50,[2]; [25],0.673 µM
same,EC50,[2]; [26],0.134 µM
same,EC50,[3]; [27],121 nM
same,EC50,[3]; [28],716 nM
same,EC50,[3]; [29],1100 nM
same,EC50,[4]; [30],0.355 µM
same,EC50,[4]; [31],0.835 µM
same,EC50,[4]; [32],0.574 µM
same,EC50,[4]; [33],0.188 µM
same,EC50,[5]; [34],0.495 µM
same,EC50,[5]; [35],0.229 µM
same,EC50,[5]; [36],1.49 µM
same,EC50,[5]; [37],0.195 µM
same,EC50,[7]; [38],549 nM
same,EC50,[7]; [39],438 nM
same,EC50,[7]; [40],347 nM
same,EC50,[7]; [41],587 nM
same,EC50,[7]; [42],823 nM
